Assay results reported in PMC11640089, “JRM-28, a Novel HDAC2 Inhibitor, Upregulates Plasticity-Associated Proteins in Hippocampal Neurons and Enhances Morphological Plasticity via Activation of CREB: Implications for Alzheimer’s Disease” (Cells, 2024).
Like-named read-outs stand apart in the source and are kept apart here.

Key:
[1] = molecular target: T1, HDAC3 (Homo sapiens, UniProt O15379); experiment: Fluorimetric HDAC inhibition assay, HDAC3; type: biochemical; conditions: reduced with DTT
T1 construct: purchased BPS Bioscience 50003
T1 sequence (O15379 whole entry): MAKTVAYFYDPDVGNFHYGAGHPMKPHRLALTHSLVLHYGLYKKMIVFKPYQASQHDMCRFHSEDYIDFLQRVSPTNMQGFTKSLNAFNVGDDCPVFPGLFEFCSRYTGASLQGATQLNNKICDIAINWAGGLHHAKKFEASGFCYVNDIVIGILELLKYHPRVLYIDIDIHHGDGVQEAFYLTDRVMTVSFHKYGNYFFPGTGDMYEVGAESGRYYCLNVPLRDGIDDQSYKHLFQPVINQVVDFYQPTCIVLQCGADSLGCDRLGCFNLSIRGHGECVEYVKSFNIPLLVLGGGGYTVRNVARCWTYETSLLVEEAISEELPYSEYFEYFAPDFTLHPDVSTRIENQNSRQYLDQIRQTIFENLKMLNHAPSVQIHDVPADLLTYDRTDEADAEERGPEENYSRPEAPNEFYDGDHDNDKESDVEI
T1 sequence (Q9Y618 395-489 partner limits assumed): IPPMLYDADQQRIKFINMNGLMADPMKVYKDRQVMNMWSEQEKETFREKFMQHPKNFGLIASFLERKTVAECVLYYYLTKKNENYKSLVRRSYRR
Protocol: The inhibition of HDAC1, 2, 3, and 6 by JRM-28 was fluorometrically measured using the HDAC Fluorogenic Assay Kit (Catalog# 50034) by BPS bioscience. Purified recombinant human HDAC1 (Cat# 50051), HDAC3 (Cat# 50003), and HDAC6 (Cat# 50056) were also obtained from BPS Bioscience. The enzyme inhibition assay was performed according to the manufacturer’s protocol. […] Purified recombinant HDAC2 (supplied with the fluorogenic kit) was diluted to 6 ng/µL (5 µL/well with the supplied HDAC assay buffer). HDAC 1, 3, and 6 were also diluted to the optimized concentration (5 µL/well) with the HDAC assay buffer. The activity of JRM-28 was measured along with DTT control and DMSO as blank. After adding 5 µL of the diluted HDAC enzymes in designated wells, the 96-well plate (supplied with the kit) was incubated at 37 °C. Then, the reaction was initiated by adding 5 µL of diluted HDAC substrate to each well, followed by another incubation at 37 °C for 30 min. Next, 50 µL of the developer reagent was added to each well and incubated at room temperature for another 15 min. Finally, fluorescence was measured by a microplate absorbance spectrophotometer (PerkinElmer Enspire 2300 Multilabel Multimode Microplate Reader) with an excitation at λ = 485 nm and detection at λ = 528 nm.

[2] = tested on: HDAC2; experiment: HDAC2 immunoblot and immunofluorescence in SHSY5Y cells; type: cell-based, human
Protocol: Immunofluorescence analysis was performed as described earlier. Briefly, cells cultured on coverslip contained in six-well plates (Lab-Tek II) were fixed with 4% paraformaldehyde for 20 min followed by two rinses in TBST. Samples were incubated in a 1:1 solution of TBST and blocking buffer containing rabbit anti-NR2A (1:250), anti-GluR1 (1:250), ant-HDAC2 (1:250), anti-CREB (1:250), and anti-MAP2 (1:250) for 2 h at 37 °C. After three washes in PBST (15 min each), slides were further incubated with FIT-C and TRIT-C-conjugated secondary antibodies. For negative controls, a set of culture slides was incubated under similar conditions with secondary antibodies and without the primary antibodies (Table 3). The samples were mounted and observed under an Accuscope fluorescent microscope. The images were captured and merged in CaptaVision^TM imaging software.
(§1) Immunoblot analysis was carried out as described earlier. Briefly, SHSY5Y neuronal cell homogenates were electrophoresed by 4–12% Tris-Glycine gradient gel, proteins were transferred onto a 0.45 μm nitrocellulose membrane, and the protein band was visualized with Odyssey Sa infrared scanner after immunolabeling with primary antibodies followed by infrared fluorophore-tagged secondary antibody (Licor Biosciences, Lincoln, NE, USA).

[3] = tested on: CREB; experiment: CREB family expression (PCR array, RT-PCR, immunoblot) in SHSY5Y cells; type: cell-based, human
Protocol: Total RNA was isolated from SHSY5Y neurons using Gene JET RNA Purification Kit (Thermofisher Scientific; Cat #K0731) following the manufacturer’s protocol. RNA was converted to cDNA using the GoScript™ Reverse Transcriptase kit (Promega, Cat # A5001). Semi-quantitative RT-PCR was carried out as described earlier using an RT-PCR kit from Promega (Cat# M7502). Briefly, 1 µg of total RNA was reverse-transcribed using oligo(dT)12–18 as a primer and MMLV reverse transcriptase in a 20 µL reaction mixture. The resulting cDNA was diluted by nuclease-free H2O in a ratio of 1:2, and diluted cDNA was amplified using the following primers (Table 2).
as §1

[4] = tested on: CREB; experiment: CRE dual luciferase reporter assay; type: cell-based, human; conditions: increasing doses (2, 5, and 10 µM)
Protocol: CRE luciferase assay was performed using a dual luciferase kit (Cat# 60611; BPS Bioscience). The CRE reporter is premixed with a constitutively expressing Renilla (sea pansy) luciferase vector that serves as an internal control for transfection efficiency. The reporter construct is transfected in SHSY5Y cells with Lipofectamine3000^TM transfection reagent mixed with serum-free Opti-MEM^TM Transfection media followed by supplementation with 20% FBS-containing media. After 24 h, cells were treated with JRM-28 for 5 h, and then dual luciferase activity was measured by cell lysis. The reaction was set in a 96-well plate, and the assay endpoint was recorded in a PerkinElmer Enspire multimodal plate reader.

[5] = molecular target: HDAC2 (Homo sapiens, UniProt Q92769); experiment: HDAC2 inhibition assay, luminometric method (HDAC-Glo I/II); type: biochemical; parameters: purchased BPS Bioscience 50002; conditions: for IC50: HDAC2 0.5 nM, read-out: IC50 HDAC2 inhibition (luminescence)
Chain of HDAC2 (Homo sapiens, UniProt Q92769) (Q92769 whole entry): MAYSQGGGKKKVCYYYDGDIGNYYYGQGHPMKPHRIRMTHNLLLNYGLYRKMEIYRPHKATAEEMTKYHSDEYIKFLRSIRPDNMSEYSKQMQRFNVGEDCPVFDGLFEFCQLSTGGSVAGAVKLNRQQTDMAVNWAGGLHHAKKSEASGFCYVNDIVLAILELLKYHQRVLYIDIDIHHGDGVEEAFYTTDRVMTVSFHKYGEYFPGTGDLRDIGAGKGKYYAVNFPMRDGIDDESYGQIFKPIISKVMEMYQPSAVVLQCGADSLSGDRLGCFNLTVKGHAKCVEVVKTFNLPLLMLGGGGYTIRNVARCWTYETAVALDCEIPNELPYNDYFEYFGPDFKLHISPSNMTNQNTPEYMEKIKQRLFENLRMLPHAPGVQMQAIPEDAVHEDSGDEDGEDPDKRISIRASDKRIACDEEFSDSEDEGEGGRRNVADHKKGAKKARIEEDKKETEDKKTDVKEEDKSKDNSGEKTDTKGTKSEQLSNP
Protocol: HDAC2 inhibition assay was performed by either the luminometric or fluorimetric method applying the following procedures. The table (Table 1) represents the details of different HDAC proteins and antibodies used in all biochemical assays.
HDAC2 inhibition assay was performed by HDAC-Glo™ I/II Assays and Screening System (Catalog# G6420, Promega Corporation, Madison, WI, USA) by the luminometric method according to the manufacturer’s protocol. […] The HDAC-2 inhibition assay was performed as previously described to determine IC values. In brief, the purified HDAC2 was diluted in HDAC assay buffer (provided with the HDAC-Glo™ I/II Assays and Screening System) to the same concentration based on their calculated molar mass. […] Next, 10 µL of JRM-28 after serial dilution was added to 10 µL of diluted HDAC2 in such a way that the final HDAC2 concentration was 0.5 nM in each well of a 384-well microplate (Greiner, Kremsmünster, Austria). After 30 min of incubation, 20 µL of the HDAC-Glo substrate/developing reagent was added to each well according to the manufacturer’s instructions. The 384-well plate was then agitated on an orbital shaker for the mixing of components in each well for another 30 min at room temperature. Finally, luminescence was measured using a POLARstar Omega plate reader (BMG Labtech, Ortenberg, Germany).

## CN(C(=O)CC(O)/C=C/CCSS(=O)(=O)CC/C=C/C(O)CC(=O)N(C)c1ccccc1)c1ccccc1 (stereo not drawn) [JRM-28, S-((E)-5-hydroxy-7-(methyl(phenyl)amino)-7-oxohept-3-en-1-yl) (E)-5-hydroxy-7-(methyl(phenyl)amino)-7-oxohept-3-ene-1-sulfonothioate]
[1]
  IC50: 279 nM
[1]; listed as JRM-28 (JRM-28a+28b)
  Hill coefficient HDAC3 (fluorimetric): −4.663
[2]; 5 µM
  nuclear translocation of HDAC2 (immunocytochemistry): significantly arrested the nuclear translocation of HDAC2
[2]; 5 µM, SHSY5Y cells
  HDAC2 expression in nuclei (dual IF with CREB): significantly attenuated the expression of HDAC2 in the nuclei
[2]; 2, 5, and 10 µM, 24 h, versus control
  HDAC2 expression (immunoblot): did not upregulate the expression of HDAC2
[3]; 5 µM
  CREB and CREB-dependent gene expression (RT2 Profiler PCR Array): strongly upregulated the expressions of the creb gene and 37 other CREB-dependent genes
  creb mRNA expression (semi-quantitative RT-PCR): upregulated the mRNA expression of creb
[3]; 2 and 5 µM
  crem mRNA expression (semi-quantitative RT-PCR): failed to upregulate the expression of crem
[3]; increasing concentrations
  CREB protein expression (immunoblot): upregulated the expression of CREB protein
[4]
  CREB-driven reporter activity: upregulated the CREB-driven reporter activity
[5]; in the presence of DTT (reduced)
  IC50: 280 nM
[5]; with DTT versus without DTT
  increase of HDAC2 inhibitory effect by addition of DTT: ~200 fold
[5]; without DTT (non-reduced dimer)
  IC50: 54900 nM
